Measurements: patent US5550212A, “Analogues of hGH-RH(1-29)NH2 having antagonistic activity” (The Administrators of the Tulane Educational Fund, priority 1993, dated 1996)
Non-standard residues stand in square brackets, D forms with d. Residues, ends and D or L forms follow the SMILES beside them. No end group written: not given here. *: point of attachment. Acetyl(1-naphthyl) = O=C(Cc1cccc2ccccc12)*; Phe(4-Cl) = N[C@@H](Cc1ccc(Cl)cc1)C(=O)O; Agmatine = N=C(N)NCCCCN*; Isobutyryl = CC(C)C(=O)*; Nle = CCCC[C@H](N)C(=O)O; Abu = CC[C@H](N)C(=O)O; X1 = O=C(CCBr)*

Tests used:
GH release [1] = details: cited from earlier work; for bioactivity (in words): compared with hGH-RH(1-29)NH2
[2] = system: hGH-RH(1-29)NH2 induced GH release; test: Superfused rat pituitary system: inhibition of hGH-RH(1-29)NH2 induced GH release; type: cell-based; details: for Inhibition of GH release (%) 0 min: 0 min response; for Inhibition of GH release (%) 30 min: 30 min response; for Inhibition of GH release (%) 60 min: 60 min response
Description: Superfused Rat Pituitary System. The analogues were tested in vitro in a test described earlier (S. Vigh and A. V. Schally, Peptides 5:241-[…], 1984) with modification ([…] and […]. 90:2146-2149, 1993). Briefly, the cells are preincubated with peptides for 9 minutes (3 mL) at various concentrations. Immediately after the incubation, 1 nM hGH-RH(1-29)NH2 is administered for 3 minutes (1 mL) [0 minute response]. To check the duration of the antagonistic effect of the analogue, 1 nM hGH-RH(1-29)NH2 is applied 30, 60, 90, and 120 minutes later for 3 minutes [30, 60, 90, 120 min responses]. Net integral values of the GH responses are evaluated. GH responses are compared to and expressed as percent of the original GH response induced by 1 nM GH-RH(1-29)NH2. The effect of the new antagonists are compared to that of [Ac-[…] ]hGH-RH(1-29)NH2, the "Standard antagonist". Growth Hormone Radio-immunoassay. Rat GH levels in aliquots of undiluted and diluted superfusion samples were measured by double-antibody radioimmunoassay using materials supplied by the National Hormone and Pituitary Program, Baltimore, Md. The results of RIA were analyzed with a computer program developed in our institute (V. Csernus and A. V. Schally, Harwood Academic (Greenstein, B. C. ed., London, pp. 71-109, 1991), hereby incorporated by reference. Inter-assay variation was less than 15% and intra-assay variation was less than 10%.

[3] = biological target: T1, rat pituitary GH-RH receptors (Rattus norvegicus, UniProt Q02644); test: GH-RH binding assay, competitive binding on rat anterior pituitary membrane homogenates; details: for Ki: competition with labelled [His1,Nle27]hGH-RH(1-32)NH2; for R.A. (relative affinity compared to the Standard antagonist): ratio of Ki values, Standard = 1
T1 construct: from tissue; host or cells: rat anterior pituitary (male Sprague-Dawley), crude membranes
T1 sequence (Q02644 23-464): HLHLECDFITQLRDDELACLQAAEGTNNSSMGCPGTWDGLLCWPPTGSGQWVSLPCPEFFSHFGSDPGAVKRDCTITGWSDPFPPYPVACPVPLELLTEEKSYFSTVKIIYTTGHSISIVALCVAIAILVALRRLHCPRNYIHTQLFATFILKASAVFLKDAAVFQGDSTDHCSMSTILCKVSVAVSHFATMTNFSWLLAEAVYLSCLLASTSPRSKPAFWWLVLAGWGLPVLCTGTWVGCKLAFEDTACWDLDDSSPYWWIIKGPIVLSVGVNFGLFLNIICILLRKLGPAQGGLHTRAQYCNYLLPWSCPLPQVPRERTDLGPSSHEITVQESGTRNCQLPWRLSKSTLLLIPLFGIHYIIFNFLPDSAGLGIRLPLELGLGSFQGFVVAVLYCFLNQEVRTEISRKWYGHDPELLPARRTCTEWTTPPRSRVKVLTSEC
Description: GH-RH Binding Assay. A sensitive radioreceptor binding assay was developed to determine the binding characteristics of the antagonists of GH-RH (G. Halmos, A. V. Schally et al., Receptor 3, 87-97, 1993), hereby incorporated by reference. The assay is based on binding of labelled [His^1,Nle^27 ]hGH-RH(1-32)NH2 to rat anterior pituitary membrane homogenates. Iodinated derivatives of [His^1,Nle^27 ]hGH-RH(1-32)NH2 are prepared by the chloramine-T method (F. C. Greenwood et al., Biochemistry 89:114-123, 1963), hereby incorporated by reference. Pituitaries from male Sprague-Dawley rats (250-300 g) are used to prepare crude membranes. For saturation binding analyses, membrane homogenates are incubated with at least 6 concentrations of [His^1,^25 I-Tyr^10,Nle^27 ]hGH-RH(1-32)NH2, ranging from 0.005 to 0.35 nM in the presence or absence of excess unlabelled peptide (1 μM). The pellet is counted for radioactivity in a y-counter. The affinities of the antagonist peptides tested to rat pituitary GH-RH receptors are determined in competitive binding experiments. The final binding affinities are estimated by Ki (dissociation constant of the inhibitor-receptor complex) and are determined by the Ligand PC computer program of Munson and Rodbard as modified by McPherson. Relative affinities compared to [Ac-Tyr^1,D-Arg^2 ]hGH-RH(1-29)NH2, the Standard antagonist, are calculated as the ratio of Ki of the tested GH-RH antagonist to the Ki of the Standard antagonist.

[4] = system: hGH-RH(1-29)NH2 induced GH release; test: In vivo test: serum GH levels in rats pretreated with GH-RH antagonists before hGH-RH(1-29)NH2; set-up: species or system Sprague-Dawley rats
Description: In Vivo Tests. Adult male Sprague-Dawley rats are anesthetized with pentobarbital (6 mg/100 g b.w., i.p.). Blood samples are taken from the jugular vein 30 min after the injection of pentobarbital. One group of 7 animals receives hGH-RH(1-29)NH2 as control. Other groups of rats are injected with [Ac-Tyr^1,D-Arg^2 ]hGH-RH(1-29)NH2 as Standard antagonist, or with one of the antagonist peptide 30 seconds prior to hGH-RH(1-29)NH2, which is administered at dose of 2-3 μg/kg b.w. Blood samples are taken from the jugular vein 5 and 15 min after the injection of antagonists. GH levels are measured by RIA. Potencies of the antagonists are calculated by the factorial analysis of Bliss and Marks with 95% confidence limits and are based on the doses of 100 and 400 μg/kg b.w. of the Standard antagonist and 20 and 80 μg/kg b.w. of the antagonists tested. Statistical significance was assessed by Duncan's new multiple range test.

GH release [5] = details: cited from earlier work

In the case of “GH-RH(1-28)NH2 (YADAIFTNSYRKVLGQLSARKLLQDIMS-NH2; UniProt P01286 32-59, looked up, fragment) [shorter GH-RH analogue]”, the “bioactivity (in words)” value (GH release [1]) is listed as “substantially lower bioactivity”.
In the case of [D-Tyr^1 ]GH-RH, the “GH releasing activity relative to GH-RH” value (GH release [1]) is given as 2-3%.
For `CC[C@H](C)[C@H](NC(=O)[C@H](C)NC(=O)[C@H](CC(=O)O)NC(=O)[C@@H](CCCNC(=N)N)NC(=O)[C@H](Cc1ccc(O)cc1)NC(C)=O)C(=O)N[C@@H](Cc1ccccc1)C(=O)N[C@H](C(=O)N[C@@H](CC(N)=O)C(=O)N[C@@H](CO)C(=O)N[C@@H](Cc1ccc(O)cc1)C(=O)N[C@@H](CCCNC(=N)N)C(=O)N[C@@H](CCCCN)C(=O)N[C@H](C(=O)N[C@@H](CC(C)C)C(=O)NCC(=O)N[C@@H](CCC(N)=O)C(=O)N[C@@H](CC(C)C)C(=O)N[C@@H](CO)C(=O)N[C@@H](C)C(=O)N[C@@H](CCCNC(=N)N)C(=O)N[C@@H](CCCCN)C(=O)N[C@@H](CC(C)C)C(=O)N[C@@H](CC(C)C)C(=O)N[C@@H](CCC(N)=O)C(=O)N[C@@H](CC(=O)O)C(=O)N[C@H](C(=O)N[C@@H](CCSC)C(=O)N[C@@H](CO)C(=O)N[C@@H](CCCNC(=N)N)C(N)=O)[C@@H](C)CC)C(C)C)[C@@H](C)O` [Standard antagonist, [Ac-Tyr^1, D-Arg^2]hGH-RH(1-29)NH2, reference compound] (Ac-Y[dR]DAIFTNSYRKVLGQLSARKLLQDIMSR-NH2), the “Inhibition of GH release (%) 0 min” value ([2]; dose 100 nM) was 62.1%, the “Inhibition of GH release (%) 30 min” value ([2]; dose 100 nM) was 2.5% and the “Inhibition of GH release (%) 60 min” value ([2]; dose 100 nM) was 19%. For the same molecule, the Ki [3] was 3.22 ± 0.12 nM, the “R.A. (relative affinity compared to the Standard antagonist)” value [3] was 1 and the “GH Levels” value ([4]; antagonist 100.0 μg/kg intravenously before GH-RH(1-29)NH2) was 738.3 ± 34.7 ng/mL. For the same molecule, the “GH Levels” value ([4]; antagonist 400.0 μg/kg intravenously before GH-RH(1-29)NH2) was 439.7 ± 47.3 ng/mL.
In the case of “hGH-RH(2-44) (ADAIFTNSYRKVLGQLSARKLLQDIMSRQQGESNQERGARARL; ends and bridges not checked; UniProt P01286 33-75, looked up, fragment) [GH-RH without its N-terminus residue]”, the “GH releasing activity relative to GH-RH” value (GH release [1]) is given as 0.1%.
For “[Ac-Tyr^1 ]GH-RH (Ac-YADAIFTNSYRKVLGQLSARKLLQDIMSRQQGESNQERGARARL; ends and bridges not checked; UniProt P01286 32-75, looked up)”, the “GH releasing activity relative to GH-RH” value (GH release [1]) is listed as 2-3%.
For [AcTyr^1 ]hGH-RH(1-29)NH2, the “in vivo potency over that of GH-RH” value (GH release [5]) is given as “ten fold or more”.
`CCCC[C@H](NC(=O)[C@@H](NC(=O)[C@H](CC(=O)O)NC(=O)[C@H](CCC(N)=O)NC(=O)[C@H](CC(C)C)NC(=O)[C@H](CC(C)C)NC(=O)[C@H](CCCCN)NC(=O)[C@H](CCCNC(=N)N)NC(=O)[C@H](C)NC(=O)[C@H](CO)NC(=O)[C@H](CC(C)C)NC(=O)[C@H](CCC(N)=O)NC(=O)[C@H](CC)NC(=O)[C@H](CC(C)C)NC(=O)[C@@H](NC(=O)[C@H](CCCCN)NC(=O)[C@H](CCCNC(=N)N)NC(=O)[C@H](Cc1ccc(O)cc1)NC(=O)[C@H](CO)NC(=O)[C@H](CC(N)=O)NC(=O)[C@@H](NC(=O)[C@H](Cc1ccc(Cl)cc1)NC(=O)[C@@H](NC(=O)[C@H](C)NC(=O)[C@H](CC(=O)O)NC(=O)[C@@H](CCCNC(=N)N)NC(=O)[C@H](CCC(=O)O)NC(=O)Cc1cccc2ccccc12)[C@@H](C)CC)[C@@H](C)O)C(C)C)[C@@H](C)CC)C(=O)N[C@@H](CO)C(=O)N[C@@H](CCCNC(=N)N)C(N)=O` [Peptide 9] ({Acetyl(1-naphthyl)}-E[dR]DAI[Phe(4-Cl)]TNSYRKVL[Abu]QLSARKLLQDI[Nle]SR-NH2) gave a Ki [3] of 0.87 ± 0.1 nM.
For `CCCC[C@H](NC(=O)[C@@H](NC(=O)[C@H](CC(=O)O)NC(=O)[C@H](CCC(N)=O)NC(=O)[C@H](CC(C)C)NC(=O)[C@H](CC(C)C)NC(=O)[C@H](CCCCN)NC(=O)[C@H](CCCNC(=N)N)NC(=O)[C@H](C)NC(=O)[C@H](CO)NC(=O)[C@H](CC(C)C)NC(=O)[C@H](CCC(N)=O)NC(=O)[C@H](CC)NC(=O)[C@H](CC(C)C)NC(=O)[C@@H](NC(=O)[C@H](CCCCN)NC(=O)[C@H](CCCNC(=N)N)NC(=O)[C@H](Cc1ccc(O)cc1)NC(=O)[C@H](CO)NC(=O)[C@H](CC(N)=O)NC(=O)[C@@H](NC(=O)[C@H](Cc1ccc(Cl)cc1)NC(=O)[C@@H](NC(=O)[C@H](C)NC(=O)[C@H](CC(=O)O)NC(=O)[C@@H](CCCNC(=N)N)NC(=O)[C@H](Cc1ccc(O)cc1)NC(=O)CCBr)[C@@H](C)CC)[C@@H](C)O)C(C)C)[C@@H](C)CC)C(=O)N[C@@H](CO)C(=O)NCCCCNC(=N)N` [Peptide 20] (X1-Y[dR]DAI[Phe(4-Cl)]TNSYRKVL[Abu]QLSARKLLQDI[Nle]S-Agmatine; N-terminus assumed), the “Inhibition of GH release (%) 0 min” value ([2]; dose 10 nM) was 56.2%, the “Inhibition of GH release (%) 30 min” value ([2]; dose 10 nM) was 35.2% and the “Inhibition of GH release (%) 60 min” value ([2]; dose 10 nM) was 51.8%. For the same molecule, the “Inhibition of GH release (%) 0 min” value ([2]; dose 30 nM) was 58%, the “Inhibition of GH release (%) 30 min” value ([2]; dose 30 nM) was 19.3% and the “Inhibition of GH release (%) 60 min” value ([2]; dose 30 nM) was 35.3%. For the same molecule, the “Inhibition of GH release (%) 0 min” value ([2]; dose 100 nM) was 86.4%, the “Inhibition of GH release (%) 30 min” value ([2]; dose 100 nM) was 75% and the “Inhibition of GH release (%) 60 min” value ([2]; dose 100 nM) was 62.8%. The “R.A. (relative affinity compared to the Standard antagonist)” value [3] was 3.27.
For “GH-RH(1-27)NH2 (YADAIFTNSYRKVLGQLSARKLLQDIM-NH2; UniProt P01286 32-58, looked up, fragment) [shorter GH-RH analogue]”, the “bioactivity (in words)” value (GH release [1]) is listed as “substantially lower bioactivity”.
`CCCC[C@H](NC(=O)[C@@H](NC(=O)[C@H](CC(=O)O)NC(=O)[C@H](CCC(N)=O)NC(=O)[C@H](CC(C)C)NC(=O)[C@H](CC(C)C)NC(=O)[C@H](CCCCN)NC(=O)[C@H](CCCNC(=N)N)NC(=O)[C@H](C)NC(=O)[C@H](CO)NC(=O)[C@H](CC(C)C)NC(=O)[C@H](CCC(N)=O)NC(=O)[C@H](CC)NC(=O)[C@H](CC(C)C)NC(=O)[C@@H](NC(=O)[C@H](CCCCN)NC(=O)[C@H](CCCNC(=N)N)NC(=O)[C@H](Cc1ccc(O)cc1)NC(=O)[C@H](CO)NC(=O)[C@H](CC(N)=O)NC(=O)[C@@H](NC(=O)[C@H](Cc1ccc(Cl)cc1)NC(=O)[C@@H](NC(=O)[C@H](C)NC(=O)[C@H](CC(=O)O)NC(=O)[C@@H](CCCNC(=N)N)NC(=O)[C@H](CCC(=O)O)NC(=O)C(C)C)[C@@H](C)CC)[C@@H](C)O)C(C)C)[C@@H](C)CC)C(=O)N[C@@H](CO)C(=O)N[C@@H](CCCNC(=N)N)C(N)=O` [Peptide 7] (Isobutyryl-E[dR]DAI[Phe(4-Cl)]TNSYRKVL[Abu]QLSARKLLQDI[Nle]SR-NH2) showed a Ki [3] of 1.35 ± 0.02 nM.
